This is an account of results in patent US8901127B2, “Pyridazin derivatives as antagonists of the bradykinin B1 receptor” (Boehringer Ingelheim International GmbH, priority 2010, dated 2014).

pKi: −log10 of the molar value.

The target in the assay is T1, cynomolgus BK1-receptor (Macaca fascicularis, UniProt Q3BCU0).
T1 construct: expressed in transfected cells; host or cells: CHO cells
T1 sequence (Q3BCU0 1-352): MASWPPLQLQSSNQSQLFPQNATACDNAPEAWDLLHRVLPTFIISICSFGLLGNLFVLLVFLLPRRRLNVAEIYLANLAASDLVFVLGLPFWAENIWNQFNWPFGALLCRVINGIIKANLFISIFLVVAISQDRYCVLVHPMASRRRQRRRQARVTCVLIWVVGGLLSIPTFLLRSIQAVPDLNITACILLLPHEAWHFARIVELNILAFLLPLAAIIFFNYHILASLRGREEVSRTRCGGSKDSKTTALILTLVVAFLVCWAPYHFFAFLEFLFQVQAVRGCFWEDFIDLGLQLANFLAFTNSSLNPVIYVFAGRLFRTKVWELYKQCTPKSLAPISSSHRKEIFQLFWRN
Nature of the assay: cynoBK1 receptor binding assay. As to conditions: homogenate of CHO cells expressing cynomolgus BK1-receptor; radioligand 0.5 to 5.0 nM kallidin (DesArg10,Leu9), [3,4-Prolyl-3,43H(N)]; ambient temperature. As for the experimental part: Description of the Method of Binding the cynoBK1-Receptor
CHO cells that express the cynomolgus BK1-receptor are cultivated in “HAM'S F-12 Medium”. The medium is removed from confluent cultures, the cells are washed with PBS buffer, scraped off or detached using Versene and isolated by centrifuging. Then the cells are homogenised in suspension, the homogenate is centrifuged and resuspended. After the protein content has been determined 200 μl of the homogenate (50 to 250 μg protein/assay) are incubated for 60-180 minutes at ambient temperature with 0.5 to 5.0 nM kallidin (DesArg10,Leu9), [3,4-Prolyl-3,43H(N)] and increasing concentrations of the test substance in a total volume of 250 μl. The incubation is stopped by rapid filtration through GF/B glass fibre filters that have been pre-treated with polyethyleneimine (0.3%). The radioactivity bound to the protein is measured with a TopCount NXT. The radioactivity bound in the presence of 1.0 μM kallidin (DesArg10) is defined as non-specific binding. The concentration binding curve may be analysed using computer-aided non-linear curve fitting to determine the corresponding Ki values for the test substance.

With `O=C(N[C@@]1(C(=O)NCc2ncc(Nc3ccc(Cl)cc3C(F)(F)F)cc2F)CCOC1)c1cn[nH]c(=O)c1` [(5)], the pKi is 8.25.

Usually pKi stands for the negative decadic logarithm of the Ki, by convention in mol/L.
